Reference: paper PMC2865582 (Journal of medicinal chemistry, 2010)

Target: T1, human GVIA iPLA2 (Homo sapiens, UniProt O60733)
T1 sequence (O60733 1-806): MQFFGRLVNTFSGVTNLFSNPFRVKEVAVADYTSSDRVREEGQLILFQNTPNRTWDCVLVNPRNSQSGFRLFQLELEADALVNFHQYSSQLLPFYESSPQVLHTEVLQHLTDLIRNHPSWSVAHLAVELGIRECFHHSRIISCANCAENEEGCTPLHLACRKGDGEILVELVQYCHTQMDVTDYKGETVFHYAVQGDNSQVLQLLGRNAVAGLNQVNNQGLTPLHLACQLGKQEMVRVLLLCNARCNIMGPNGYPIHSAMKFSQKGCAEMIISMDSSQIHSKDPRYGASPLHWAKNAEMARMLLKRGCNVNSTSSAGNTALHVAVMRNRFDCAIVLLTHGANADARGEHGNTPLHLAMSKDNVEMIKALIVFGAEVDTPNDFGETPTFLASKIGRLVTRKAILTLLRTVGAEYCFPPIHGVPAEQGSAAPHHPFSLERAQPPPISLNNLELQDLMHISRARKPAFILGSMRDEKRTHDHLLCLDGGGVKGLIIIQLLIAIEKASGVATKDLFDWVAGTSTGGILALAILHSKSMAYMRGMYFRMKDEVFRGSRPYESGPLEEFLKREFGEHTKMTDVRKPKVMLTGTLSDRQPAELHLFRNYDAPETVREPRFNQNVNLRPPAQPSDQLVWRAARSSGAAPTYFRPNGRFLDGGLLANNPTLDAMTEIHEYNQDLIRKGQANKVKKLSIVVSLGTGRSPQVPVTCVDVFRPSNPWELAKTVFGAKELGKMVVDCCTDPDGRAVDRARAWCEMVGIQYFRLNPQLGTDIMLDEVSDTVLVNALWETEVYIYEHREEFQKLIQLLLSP
Assay: Mixed micelle-based
Format: biochemical

[1] = XI(50) compared with inhibitor 2

O=C(CCCOc1ccccc1)C(F)(F)C(F)(F)F [12a, 1,1,1,2,2-Pentafluoro-6-phenoxyhexan-3-one]
times less potent on GVIA iPLA2 than inhibitor 2 [1]: 2.5 times

O=C(CCCCc1ccc2ccccc2c1)C(F)(F)F [12g, 1,1,1-Trifluoro-6-(naphthalen-2-yl)hexan-2-one]
times higher inhibition of GVIA iPLA2 than inhibitor 2 [1]: 7 times

O=C(CCCCc1ccccc1)C(F)(F)C(F)(F)F [compound 2, 1,1,1,2,2-pentafluoro-7-phenylheptan-3-one]
inhibition at 0.091 mole fraction (read-out: GVIA iPLA2 % Inhibition): 99.4 ± 0.1%

O=C(/C=C/C=C/c1ccccc1)C(F)(F)C(F)(F)F [compound 10, (4E,6E)-1,1,1,2,2-Pentafluoro-7-phenylhepta-4,6-dien-3-one]
times less potent on GVIA iPLA2 than inhibitor 2 [1]: 22 times
